Laboratory results: patent US20190152992A1, “BENZODIOXANE DERIVATIVES AND THEIR PHARMACEUTICAL USE” (Orion Corporation, priority 2016, published 2019)
Where a name gives a salt, the structure may show the parent alone.

Legend:
human alpha2A receptors = molecular target: T1, human alpha2A receptors (Homo sapiens, UniProt P08913); experiment: cell-based
T1 sequence (P08913 1-465): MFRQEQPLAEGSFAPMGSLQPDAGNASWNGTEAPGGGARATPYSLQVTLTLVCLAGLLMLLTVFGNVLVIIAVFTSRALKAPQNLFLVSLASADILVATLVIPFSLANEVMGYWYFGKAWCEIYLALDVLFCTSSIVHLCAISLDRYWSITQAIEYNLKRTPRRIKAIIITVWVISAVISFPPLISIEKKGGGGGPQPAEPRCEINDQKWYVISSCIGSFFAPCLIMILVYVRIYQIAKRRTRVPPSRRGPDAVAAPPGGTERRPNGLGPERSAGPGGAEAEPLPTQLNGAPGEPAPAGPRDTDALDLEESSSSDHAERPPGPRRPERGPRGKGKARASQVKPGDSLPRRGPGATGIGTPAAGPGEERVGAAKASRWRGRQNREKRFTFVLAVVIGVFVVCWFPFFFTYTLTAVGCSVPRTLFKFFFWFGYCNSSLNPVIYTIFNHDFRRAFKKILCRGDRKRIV

human alpha2C receptors = molecular target: T2, human alpha2C receptors (Homo sapiens, UniProt P18825); experiment: Determination of alpha2C antagonistic activity in vitro (FLIPR calcium assay); conditions: for Kb: Alpha 2C Adrenaline Kb, Kb calculated from IC50 with the Cheng-Prusoff equation, adrenaline as agonist, CHO cells, human alpha2C
T2 sequence (P18825 1-462): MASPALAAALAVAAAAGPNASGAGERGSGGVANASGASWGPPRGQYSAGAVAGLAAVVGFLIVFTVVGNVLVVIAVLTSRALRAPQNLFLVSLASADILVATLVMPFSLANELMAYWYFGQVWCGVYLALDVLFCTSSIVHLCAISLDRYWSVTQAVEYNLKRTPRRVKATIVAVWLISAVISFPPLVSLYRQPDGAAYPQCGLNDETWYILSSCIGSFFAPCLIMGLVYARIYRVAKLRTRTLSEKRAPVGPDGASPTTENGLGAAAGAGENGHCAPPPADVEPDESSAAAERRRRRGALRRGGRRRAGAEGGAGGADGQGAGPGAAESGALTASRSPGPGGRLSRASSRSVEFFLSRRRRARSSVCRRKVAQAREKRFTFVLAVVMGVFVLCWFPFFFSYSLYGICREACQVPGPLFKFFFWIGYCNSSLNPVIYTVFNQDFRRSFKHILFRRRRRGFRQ
Protocol: Experiment 1: Determination of alpha2A and alpha2C Antagonistic Activity In Vitro
The growth medium was removed and the cells were incubated with the test compounds and the FLIPR Calcium 6 Assay reagent (Molecular Devices, CA, USA) for 2 h at 37° C. in dark. The test compounds (concentrations in cells 100 pM-10 μM) were dissolved in Probenecid-Ringer consisting of 150 mM NaCl, 3 mM KCl, 1.2 mM MgCl2, 1 mM CaCl2, 5 mM glucose, 20 mM HEPES and 2.5 mM probenecid (pH 7.4 adjusted with 1.0 M NaOH). […] All experiments were performed at 37° C. For agonism measurements the test compounds dissolved in Probenecid-Ringer were applied by FLIPR Tetra at 15 s time point. In order to determine antagonism, the cells were stimulated either with 100 nM adrenaline or noradrenaline and the test compounds were added to the cells 2 h before the experiment with the FLIPR Calcium 6 Assay reagent. […] Typically, there were four replicates at each concentration and six different dose levels. […] The minimum fluorescence value subtracted from the maximum value for each well was used in the calculations. ScreenWorks version 4.0 software was used for analyzing the results. Fitting of the antagonist dose-response results was performed with the free Hill equation and the IC50 values were fitted with IDBS XE software using model 200: y=(A+(B/(1+((x/C)̂D)))), where A is the curve maximum, B the curve minimum and C equals the EC50 value. D is slope factor (Hill). Kb was calculated with the Cheng-Prusoff equation Kb=A/((B/C)+1), where A is the IC50 of antagonist, B the concentration of agonist and C the EC50 of the agonist.

| IC50 (human alpha2A receptors) [µM] | Kb (human alpha2A receptors) [nM] | IC50 (human alpha2C receptors) [nM] | Kb (human alpha2C receptors) [nM] | SMILES |
| --- | --- | --- | --- | --- |
| > 10 | > 449 | 0.796 | 0.08 | CC(C)(C)N1C(=O)C(=O)N([C@H]2CCCN(C[C@H]3COc4ccccc4O3)C2)C1=O [example 134, 1-tert-Butyl-3-((S)-1-(((S)-2,3-dihydrobenzo[b][1,4]dioxin-2-yl)methyl)piperidin-3-yl)imidazolidine-2,4,5-trione] |
| > 10 | > 449 | 444 | 44.7 | CN(C)CCN1C(=O)C(=O)N([C@H]2CCCN(C[C@H]3COc4ccccc4O3)C2)C1=O [example 135, 1-((S)-1-(((S)-2,3-Dihydrobenzo[b][1,4]dioxin-2-yl)methyl)-piperidin-3-yl)-3-(2-(dimethylamino)ethyl)imidazolidine-2,4,5-trione] |
| > 10 | > 449 | 5.5 | 0.554 | O=C1C(=O)N([C@H]2CCCN(C[C@H]3COc4ccccc4O3)C2)C(=O)N1C1CCNCC1 [example 137, 1-((S)-1-(((S)-2,3-Dihydrobenzo[b][1,4]dioxin-2-yl)methyl)piperidin-3-yl)-3-(piperidin-4-yl)imidazolidine-2,4,5-trione dihydrochloride] |
| > 10 | > 449 | 4.35 | 0.438 | CN1C(=O)C(=O)N([C@H]2CCCN(C[C@H]3COc4ccccc4O3)C2)C1=O [example 138, 1-((S)-1-(((S)-2,3-Dihydrobenzo[b][1,4]dioxin-2-yl)methyl)piperidin-3-yl)-3-methylimidazolidine-2,4,5-trione] |
| 9.83 | 441 | 0.113 | 0.012 | CC(=O)N1CCC(N2C(=O)C(=O)N([C@H]3CCCN(C[C@H]4COc5ccccc5O4)C3)C2=O)CC1 [example 139, 1-(1-Acetylpiperidin-4-yl)-3-((S)-1-(((S)-2,3-dihydrobenzo[b][1,4]-dioxin-2-yl)methyl)piperidin-3-yl)imidazolidine-2,4,5-trione] |
| > 10 | > 449 | 2.19 | 0.22 | O=C1C(=O)N([C@H]2CCCN(C[C@H]3COc4ccccc4O3)C2)C(=O)N1Cc1ccncc1 [example 140, 1-((S)-1-(((S)-2,3-Dihydrobenzo[b][1,4]dioxin-2-yl)methyl)piperidin-3-yl)-3-(pyridin-4-ylmethyl)imidazolidine-2,4,5-trione] |
| > 10 | > 449 | 0.446 | 0.045 | CC(C)CN1C(=O)C(=O)N([C@H]2CCCN(C[C@H]3COc4ccccc4O3)C2)C1=O [example 141, 1-((S)-1-(((S)-2,3-Dihydrobenzo[b][1,4]dioxin-2-yl)methyl)piperidin-3-yl)-3-isobutylimidazolidine-2,4,5-trione] |
| > 10 | > 449 | 0.846 | 0.085 | O=C1C(=O)N([C@H]2CCCN(C[C@H]3COc4ccccc4O3)C2)C(=O)N1Cc1ccccn1 [example 142, 1-((S)-1-(((S)-2,3-Dihydrobenzo[b][1,4]dioxin-2-yl)methyl)piperidin-3-yl)-3-(pyridin-2-ylmethyl)imidazolidine-2,4,5-trione] |
| > 10 | > 449 | 1.38 | 0.14 | O=C1C(=O)N([C@H]2CCCN(C[C@H]3COc4ccccc4O3)C2)C(=O)N1Cc1cccnc1 [example 143, 1-((S)-1-(((S)-2,3-Dihydrobenzo[b][1,4]dioxin-2-yl)methyl)piperidin-3-yl)-3-(pyridin-3-ylmethyl)imidazolidine-2,4,5-trione] |
| > 10 | > 449 | 228 | 22.9 | Cn1c(=O)n([C@H]2CCCN(C[C@H]3COc4ccccc4O3)C2)c2ccccc21 [example 147, 1-((S)-1-(((S)-2,3-Dihydrobenzo[b][1,4]dioxin-2-yl)methyl)piperidin-3-yl)-3-methyl-1H-benzo[d]imidazol-2(3H)-one] |
| > 10 | > 449 | < 0.1 | < 0.01 | O=c1[nH]c2c(F)cccc2n1[C@H]1CCCN(C[C@H]2COc3ccccc3O2)C1 [example 154, 1-((S)-1-(((S)-2,3-Dihydrobenzo[b][1,4]dioxin-2-yl)methyl)piperidin-3-yl)-4-fluoro-1H-benzo[d]imidazol-2(3H)-one] |

The remaining lines, values behind:

| SMILES | IC50 (human alpha2A receptors) [µM] | Kb (human alpha2A receptors) [nM] | IC50 (human alpha2C receptors) [nM] | Kb (human alpha2C receptors) [nM] |
| --- | --- | --- | --- | --- |
| c1ccc2c(c1)OC[C@H](CN1CCC[C@H](n3nnc4ccccc43)C1)O2 [example 145, 1-((S)-1-(((S)-2,3-Dihydrobenzo[b][1,4]dioxin-2-yl)methyl)piperidin-3-yl)-1H-benzo[d][1,2,3]triazole] | 2.78 | 125 | 0.85 | 0.09 |
| O=S1(=O)Nc2ccccc2N1[C@H]1CCCN(C[C@H]2COc3ccccc3O2)C1 [example 146, 1-((S)-1-(((S)-2,3-Dihydrobenzo[b][1,4]dioxin-2-yl)methyl)piperidin-3-yl)-1,3-dihydrobenzo[c][1,2,5]thiadiazole 2,2-dioxide] | 7.19 | 323 | 1050 | 105 |
| O=c1n(-c2ccccc2)c2ccccc2n1[C@H]1CCCN(C[C@H]2COc3ccccc3O2)C1 [example 149, 1-((S)-1-(((S)-2,3-Dihydrobenzo[b][1,4]dioxin-2-yl)methyl)piperidin-3-yl)-3-phenyl-1H-benzo[d]imidazol-2(3H)-one] | > 10 | > 449 | 3220 | 324 |
| Cc1nc2ccccc2n1[C@H]1CCCN(C[C@H]2COc3ccccc3O2)C1 [example 150, 1-((S)-1-(((S)-2,3-Dihydrobenzo[b][1,4]dioxin-2-yl)methyl)piperidin-3-yl)-2-methyl-1H-benzo[d]imidazole] | 4.48 | 201 | < 0.1 | < 0.01 |
| COCc1nc2ccccc2n1[C@H]1CCCN(C[C@H]2COc3ccccc3O2)C1 [example 151, 1-((S)-1-(((S)-2,3-Dihydrobenzo[b][1,4]dioxin-2-yl)methyl)piperidin-3-yl)-2-(methoxymethyl)-1H-benzo[d]imidazole] | 6.16 | 276 | < 0.1 | < 0.01 |
| CN(C)Cc1nc2ccc(Cl)cc2n1[C@H]1CCCN(C[C@H]2COc3ccccc3O2)C1 [example 152, 1-(6-Chloro-1-((S)-1-(((S)-2,3-dihydrobenzo[b][1,4]dioxin-2-yl)methyl)piperidin-3-yl)-1H-benzo[d]imidazol-2-yl)-N,N-dimethylmethanamine] | 0.288 | 13 | 69.8 | 7.03 |
| CNCc1nc2ccc(Cl)cc2n1[C@H]1CCCN(C[C@H]2COc3ccccc3O2)C1 [example 153, 1-(6-Chloro-1-((S)-1-(((S)-2,3-dihydrobenzo[b][1,4]dioxin-2-yl)methyl)piperidin-3-yl)-1H-benzo[d]imidazol-2-yl)-N-methylmethanamine] | > 10 | > 449 | 3580 | 361 |
| COc1ccc2nc(C)n([C@H]3CCCN(C[C@H]4COc5ccccc5O4)C3)c2n1 [example 155, 3-((S)-1-(((S)-2,3-Dihydrobenzo[b][1,4]dioxin-2-yl)methyl)piperidin-3-yl)-5-methoxy-2-methyl-3H-imidazo[4,5-b]pyridine] | > 10 | > 449 | 56 | 5.64 |
